Source: the NIST ThermoML archive (doi:10.1021/je5010214)

Settings: Liquid, Vibrating tube method

CC(C)CO [2-methyl-1-propanol]
Settings	mass density [kg/m3]
333.16 K, 3100 kPa	773.622
333.16 K, 5034 kPa	775.464
333.16 K, 17954 kPa	786.777
333.16 K, 19985 kPa	788.397
333.16 K, 24923 kPa	792.261
333.16 K, 27922 kPa	794.514
333.16 K, 33031 kPa	798.137
333.16 K, 34001 kPa	798.837
333.16 K, 35030 kPa	799.567
333.16 K, 37925 kPa	801.558
333.16 K, 39862 kPa	802.861
333.16 K, 44782 kPa	806.126
338.15 K, 72.5 kPa	765.803
338.15 K, 267.1 kPa	766.009
338.15 K, 496.5 kPa	766.255
338.15 K, 821.3 kPa	766.6
338.15 K, 1007.7 kPa	766.796
338.15 K, 2012.4 kPa	767.824
338.15 K, 3039.1 kPa	768.845
338.15 K, 7018.5 kPa	772.739
338.15 K, 8987.6 kPa	774.596
338.15 K, 10054 kPa	775.578
338.15 K, 18105 kPa	782.627
338.15 K, 22120 kPa	785.947
338.15 K, 28029 kPa	790.565
338.15 K, 32010 kPa	793.527
338.15 K, 32776 kPa	794.103
338.15 K, 32995 kPa	794.184
338.15 K, 33922 kPa	794.869
338.15 K, 38056 kPa	797.798
338.15 K, 42127 kPa	800.629
338.15 K, 48090 kPa	804.572
338.15 K, 50121 kPa	805.906
338.15 K, 52094 kPa	807.168
338.15 K, 55116 kPa	809.055
338.15 K, 58010 kPa	810.837
338.15 K, 60191 kPa	812.149
338.15 K, 62244 kPa	813.373
338.15 K, 65243 kPa	815.143
338.15 K, 65986 kPa	815.583
338.15 K, 66355 kPa	815.805
338.16 K, 5091.1 kPa	770.879
338.16 K, 12131 kPa	777.462
338.16 K, 15171 kPa	780.113
338.16 K, 20167 kPa	784.349
338.16 K, 25290 kPa	788.465
338.16 K, 30041 kPa	792.069
338.16 K, 35102 kPa	795.7
338.16 K, 39987 kPa	799.156
338.16 K, 45109 kPa	802.623
343.15 K, 55.6 kPa	761.239
343.15 K, 101.8 kPa	761.279
343.15 K, 277.3 kPa	761.484
343.15 K, 487.7 kPa	761.699
343.15 K, 881.6 kPa	762.13
343.15 K, 1037 kPa	762.294
343.15 K, 1941.4 kPa	763.263
343.15 K, 3000.3 kPa	764.362
343.15 K, 4957 kPa	766.378
343.15 K, 6956.1 kPa	768.377
343.15 K, 8969.5 kPa	770.304
343.15 K, 10003 kPa	771.264
343.15 K, 11997 kPa	773.149
343.15 K, 14895 kPa	775.758
343.15 K, 17840 kPa	778.358
343.15 K, 20135 kPa	780.417
343.15 K, 21925 kPa	781.908
343.15 K, 24920 kPa	784.349
343.15 K, 27949 kPa	786.755
343.15 K, 29863 kPa	788.238
343.15 K, 31874 kPa	789.777
343.15 K, 32927 kPa	790.544
343.15 K, 32981 kPa	790.602
343.15 K, 34026 kPa	791.305
343.15 K, 35028 kPa	792.011
343.15 K, 38080 kPa	794.257
343.15 K, 39908 kPa	795.53
343.15 K, 41973 kPa	796.98
343.15 K, 44972 kPa	799.034
343.15 K, 47997 kPa	801.072
